From patent US8883784B2, “Apoptosis-inducing agents for the treatment of cancer and immune and autoimmune diseases” (AbbVie Inc., priority 2012, dated 2014)

Experiments:
GST-Bcl-xL = GST-Bcl-xL (Homo sapiens (Human), UniProt Q07817); experiment: TR-FRET binding assay, competition with F-Bak for Bcl-xL; details: competition with F-Bak probe, GST-Bcl-xL 1 nM
Procedure: Determination of the utility of compounds having Formula (I) as binders to and inhibitors of anti-apoptotic Bcl-xL proteins was performed using the Time Resolved-Fluorescence Resonance Energy Transfer (TR-FRET) Assay. Tb-anti-GST antibody was purchased from Invitrogen (Catalog No. PV4216).
The measurement of competition of compounds of Formula (I) with F-Bak for a Bcl-2 family protein (Bcl-xL) binding site using a Time Resolved Fluorescence Resonance Energy Transfer (TR-FRET) binding assay:
Test compounds were serially diluted in DMSO starting at 50 μM (2× starting concentration; 10% DMSO) and 10 μL transferred into a 384-well plate.
The samples are then mixed on a shaker for 1 minute then incubated for an additional 2 hours at room temperature. For each assay plate, a probe/antibody and protein/antibody/probe mixture were included as a negative and a positive control, respectively. Fluorescence was measured on the ENVISION plate reader (Perkin Elmer) using a 340/35 nm excitation filter and 520/525 (F-Bak) and 495/510 nm (Tb-labeled anti-his antibody) emission filters. Dissociation constants (Ki) were determined using Wang's equation (Wang, Z. X. An 20 exact mathematical expression for describing competitive binding of two different ligands to protein molecule. FEBS Lett. 1995 360:111-114). The TR-FRET assay can be performed in the presence of varying concentrations of human serum (HS) or fetal bovine serum (FBS).

[1] = tested on: mouse FL5.12 cells transfected with Bcl-XL; experiment: FL5.12 cellular assay (cell viability, CellTiter-Glo); assay type: cell-based; details: IL-3-depleted, 3% FBS assay media, 24 hours, read-out: FL5.12 Bcl-xL, -IL3, EC 50
Procedure: The efficacy of the compounds of Formula (I) can also be determined in cell-based killing assays using a variety of cell lines and mouse tumor models. For example, their activity on cell viability can be assessed on a panel of cultured tumorigenic and non-tumorigenic cell lines, as well as primary mouse or human cell populations. In one exemplary set of conditions, mouse FL5.12 cells transfected with Bcl-XL were cultured under standard conditions in RPMI with 2 mM glutamine, 1% 100 mM sodium pyruvate, 2% 1 M HEPES, 4 μL/L of β-mercaptoethanol, 1% penicillinstreptomycin, 10% FBS, and 10% WEHI-3B conditioned media (for IL-3). For assaying the compound activity, the cells were exchanged into an IL-3-depleted deprivation media, which was identical to the growth media except for the absence of FBS and WEHI-3B conditional media, for 2 days. Then the cells were exchanged to 3% FBS assay media (RPMI with 2 mM glutamine, 1% 100 mM sodium pyruvate, 2% 1 M HEPES, 4 μL/L of β-mercaptoethanol, 1% penicillinstreptomycin, 3% FBS). Compounds in series dilutions were added, and the cells were cultured for 24 hours. Cell viability was assayed using the CellTiter-Glo assay (Promega Corp., Madison, Wis.) according to the manufacturer instructions. Individual determinations were the result of duplicate values.

Sequence of GST-Bcl-xL (Q07817 whole entry): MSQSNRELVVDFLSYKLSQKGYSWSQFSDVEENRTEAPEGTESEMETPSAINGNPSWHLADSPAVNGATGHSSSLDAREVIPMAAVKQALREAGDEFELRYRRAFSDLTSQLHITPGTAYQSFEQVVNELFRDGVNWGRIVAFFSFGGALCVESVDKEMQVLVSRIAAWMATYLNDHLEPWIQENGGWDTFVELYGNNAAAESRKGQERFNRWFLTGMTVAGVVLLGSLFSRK

| Structure (SMILES) | Ki (GST-Bcl-xL) [nM] | EC50 [1] [nM] |
| --- | --- | --- |
| CN(C)CCCNc1ccc(S(=O)(=O)NC(=O)c2nc(N3CCc4cccc(C(=O)Nc5nc6ccccc6s5)c4C3)ccc2CCCc2ccccc2)cc1S(=O)(=O)C(F)(F)F [Example 5, N-(1,3-benzothiazol-2-yl)-2-[6-{[(4-{[3-(dimethylamino)propyl]amino}-3-[(trifluoromethyl)sulfonyl]phenyl)sulfonyl]carbamoyl}-5-(3-phenylpropyl)pyridin-2-yl]-1,2,3,4-tetrahydroisoquinoline-8-carboxamide] | 48 | > 1000 |
| CN(C)CCCNc1ccc(S(=O)(=O)NC(=O)c2nc(N3CCc4cccc(C(=O)Nc5nc6ccccc6s5)c4C3)sc2CCc2ccccc2)cc1[N+](=O)[O-] [Example 13, N-(1,3-benzothiazol-2-yl)-2-[4-{[(4-{[3-(dimethylamino)propyl]amino}-3-nitrophenyl)sulfonyl]carbamoyl}-5-(2-phenylethyl)-1,3-thiazol-2-yl]-1,2,3,4-tetrahydroisoquinoline-8-carboxamide] | 0.8 | 94 |
| CN(C)CCCNc1ccc(S(=O)(=O)NC(=O)c2nc(N3CCc4cccc(C(=O)Nc5nc6ccccc6s5)c4C3)sc2Cc2ccccc2)cc1S(=O)(=O)C(F)(F)F [Example 8, N-(1,3-benzothiazol-2-yl)-2-(5-benzyl-4-{[(4-{[3-(dimethylamino)propyl]amino}-3-[(trifluoromethyl)sulfonyl]phenyl)sulfonyl]carbamoyl}-1,3-thiazol-2-yl)-1,2,3,4-tetrahydroisoquinoline-8-carboxamide] | 11 | > 1000 |
| CN(C)CCCNc1ccc(S(=O)(=O)NC(=O)c2nc(N3CCc4cccc(C(=O)Nc5nc6ccccc6s5)c4C3)sc2CCc2ccccc2)cc1S(=O)(=O)C(F)(F)F [Example 11, N-(1,3-benzothiazol-2-yl)-2-[4-{[(4-{[3-(dimethylamino)propyl]amino}-3-[(trifluoromethyl)sulfonyl]phenyl)sulfonyl]carbamoyl}-5-(2-phenylethyl)-1,3-thiazol-2-yl]-1,2,3,4-tetrahydroisoquinoline-8-carboxamide] | 0.06 | 22 |
| CN(C)CC[C@H](CSc1ccccc1)Nc1ccc(S(=O)(=O)NC(=O)c2csc(N3CCc4cccc(C(=O)Nc5nc6ccccc6s5)c4C3)n2)cc1S(=O)(=O)C(F)(F)F [Example 12, N-(1,3-benzothiazol-2-yl)-2-(4-{[(4-{[(2R)-4-(dimethylamino)-1-(phenylsulfanyl)butan-2-yl]amino}-3-[(trifluoromethyl)sulfonyl]phenyl)sulfonyl]carbamoyl}-1,3-thiazol-2-yl)-1,2,3,4-tetrahydroisoquinoline-8-carboxamide] | 0.04 | 3 |
| CN(C)CCCNc1ccc(S(=O)(=O)NC(=O)c2nc(N3CCc4cccc(C(=O)Nc5nc6ccccc6s5)c4C3)ccc2CCc2ccccc2)cc1[N+](=O)[O-] [Example 6, N-(1,3-benzothiazol-2-yl)-2-[6-{[(4-{[3-(dimethylamino)propyl]amino}-3-nitrophenyl)sulfonyl]carbamoyl}-5-(2-phenylethyl)pyridin-2-yl]-1,2,3,4-tetrahydroisoquinoline-8-carboxamide] | 17 | > 1000 |
| O=C(NS(=O)(=O)c1ccc(N[C@H](CCO)CSc2ccccc2)c(S(=O)(=O)C(F)(F)F)c1)c1csc(N2CCc3cccc(C(=O)Nc4nc5ccccc5s4)c3C2)n1 [Example 14, N-(1,3-benzothiazol-2-yl)-2-(4-{[(4-{[(2R)-4-hydroxy-1-(phenylsulfanyl)butan-2-yl]amino}-3-[(trifluoromethyl)sulfonyl]phenyl)sulfonyl]carbamoyl}-1,3-thiazol-2-yl)-1,2,3,4-tetrahydroisoquinoline-8-carboxamide] | 0.2 |  |
| CN(C)CCCNc1ccc(S(=O)(=O)NC(=O)c2csc(N3CCc4cccc(C(=O)Nc5nc6ccccc6s5)c4C3)n2)cc1S(=O)(=O)C(F)(F)F [Example 7, N-(1,3-benzothiazol-2-yl)-2-(4-{[(4-{[3-(dimethylamino)propyl]amino}-3-[(trifluoromethyl)sulfonyl]phenyl)sulfonyl]carbamoyl}-1,3-thiazol-2-yl)-1,2,3,4-tetrahydroisoquinoline-8-carboxamide] | 1.7 | > 1000 |
| CN(C)CCCNc1ccc(S(=O)(=O)NC(=O)c2nc(N3CCc4cccc(C(=O)Nc5nc6ccccc6s5)c4C3)ccc2CCCc2ccccc2)cc1[N+](=O)[O-] [Example 4, N-(1,3-benzothiazol-2-yl)-2-[6-{[(4-{[3-(dimethylamino)propyl]amino}-3-nitrophenyl)sulfonyl]carbamoyl}-5-(3-phenylpropyl)pyridin-2-yl]-1,2,3,4-tetrahydroisoquinoline-8-carboxamide] | 9 | > 1000 |
| O=C(NS(=O)(=O)c1ccc(N[C@H](CCN2CCOCC2)CSc2ccccc2)c(S(=O)(=O)C(F)(F)F)c1)c1csc(N2CCc3cccc(C(=O)Nc4nc5ccccc5s4)c3C2)n1 [Example 2, N-(1,3-benzothiazol-2-yl)-2-(4-{[(4-{[(2R)-4-(morpholin-4-yl)-1-(phenylsulfanyl)butan-2-yl]amino}-3-[(trifluoromethyl)sulfonyl]phenyl)sulfonyl]carbamoyl}-1,3-thiazol-2-yl)-1,2,3,4-tetrahydroisoquinoline-8-carboxamide] | 0.1 | 12 |
| O=C(NS(=O)(=O)c1ccc(N[C@H](CCN2CCOCC2)CSc2ccccc2)c(S(=O)(=O)C(F)(F)F)c1)c1cccc(N2CCc3cccc(C(=O)Nc4nc5ccccc5s4)c3C2)n1 [Example 3, N-(1,3-benzothiazol-2-yl)-2-(6-{[(4-{[(2R)-4-(morpholin-4-yl)-1-(phenylsulfanyl)butan-2-yl]amino}-3-[(trifluoromethyl)sulfonyl]phenyl)sulfonyl]carbamoyl}pyridin-2-yl)-1,2,3,4-tetrahydroisoquinoline-8-carboxamide] | 12 | > 1000 |
| CN(C)CCCNc1ccc(S(=O)(=O)NC(=O)c2nc(N3CCc4cccc(C(=O)Nc5nc6ccccc6s5)c4C3)sc2CCCc2ccccc2)cc1[N+](=O)[O-] [Example 15, N-(1,3-benzothiazol-2-yl)-2-[4-{[(4-{[3-(dimethylamino)propyl]amino}-3-nitrophenyl)sulfonyl]carbamoyl}-5-(3-phenylpropyl)-1,3-thiazol-2-yl]-1,2,3,4-tetrahydroisoquinoline-8-carboxamide] | 5 |  |
| CN(C)CC[C@H](CSc1ccccc1)Nc1ccc(S(=O)(=O)NC(=O)c2csc(N3CCc4cccc(C(=O)Nc5nc6ccccc6s5)c4C3)n2)cc1[N+](=O)[O-] [Example 1, N-(1,3-benzothiazol-2-yl)-2-(4-{[(4-{[(2R)-4-(dimethylamino)-1-(phenylsulfanyl)butan-2-yl]amino}-3-nitrophenyl)sulfonyl]carbamoyl}-1,3-thiazol-2-yl)-1,2,3,4-tetrahydroisoquinoline-8-carboxamide] | 0.1 | 56 |
| O=C(NS(=O)(=O)c1ccc(N[C@H](CCN2CCOCC2)CSc2ccccc2)c([N+](=O)[O-])c1)c1csc(N2CCc3cccc(C(=O)Nc4nc5ccccc5s4)c3C2)n1 [Example 10, N-(1,3-benzothiazol-2-yl)-2-(4-{[(4-{[(2R)-4-(morpholin-4-yl)-1-(phenylsulfanyl)butan-2-yl]amino}-3-nitrophenyl)sulfonyl]carbamoyl}-1,3-thiazol-2-yl)-1,2,3,4-tetrahydroisoquinoline-8-carboxamide] | 0.14 |  |
| CN(C)CCCNc1ccc(S(=O)(=O)NC(=O)c2nc(N3CCc4cccc(C(=O)Nc5nc6ccccc6s5)c4C3)sc2Cc2ccccc2)cc1[N+](=O)[O-] [Example 9, N-(1,3-benzothiazol-2-yl)-2-(5-benzyl-4-{[(4-{[3-(dimethylamino)propyl]amino}-3-nitrophenyl)sulfonyl]carbamoyl}-1,3-thiazol-2-yl)-1,2,3,4-tetrahydroisoquinoline-8-carboxamide] | 41 | > 1000 |
